Assay results taken from ChEMBL document CHEMBL4261582, “Natural products as inhibitors of Leishmania major dihydroorotate dehydrogenase” (Eur J Med Chem, 2018).

Experiments:
[1] = target: Dihydroorotate dehydrogenase (quinone), mitochondrial (Homo sapiens) (UniProt Q02127); experiment: Inhibition of human DHODH at 100 uM
[2] = target: T1, Dihydroorotate dehydrogenase (fumarate) (Leishmania major) (UniProt Q4QEW7); experiment: Inhibition of recombinant oligo-histidine-tagged Leishmania major DHODH expressed in Escherichia coli BL21(DE3) cells at 100 uM using DHO as substrate measured after 60 secs
T1 sequence (whole entry): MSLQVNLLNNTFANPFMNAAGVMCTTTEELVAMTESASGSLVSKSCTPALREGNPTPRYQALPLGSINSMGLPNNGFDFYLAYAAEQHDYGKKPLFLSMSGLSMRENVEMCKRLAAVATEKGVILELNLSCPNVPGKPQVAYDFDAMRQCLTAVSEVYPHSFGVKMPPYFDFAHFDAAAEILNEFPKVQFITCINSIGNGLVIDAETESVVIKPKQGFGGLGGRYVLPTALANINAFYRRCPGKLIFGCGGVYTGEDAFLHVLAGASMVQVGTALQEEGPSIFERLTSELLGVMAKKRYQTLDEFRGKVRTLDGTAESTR

[3] = target: T2, Dihydroorotate dehydrogenase (fumarate) (Leishmania major, UniProt Q4QEW7); experiment: Inhibition of recombinant oligo-histidine-tagged Leishmania major DHODH expressed in Escherichia coli BL21(DE3) cells using DHO as substrate measured after 60 secs; conditions: read-out: IC50
T2 sequence (Q4QEW7 whole entry): T1 sequence (whole entry)

Trypanosoma cruzi [4] = experiment: Antitrypanosomal activity against Trypanosoma cruzi trypomastigotes; type: functional, organism-based
Leishmania amazonensis [5] = experiment: Antileishmanial activity against Leishmania amazonensis WHOM/BR/75/Josefa promastigotes after 72 hrs by Neubauer chamber method; type: functional, organism-based
Leishmania amazonensis [6] = experiment: Antileishmanial activity against Leishmania amazonensis WHOM/BR/75/Josefa amastigotes after 72 hrs by Neubauer chamber method; type: functional, organism-based
Leishmania donovani = experiment: Antileishmanial activity against Leishmania donovani MHOM/ET/67/L82 amastigotes after 72 hrs by Alamar Blue assay; type: functional, organism-based; conditions: MHOM/ET/67/L82, 72 h
Trypanosoma cruzi [7] = experiment: Antitrypanosomal activity against Trypanosoma cruzi Tulahuen C2C4 trypomastigotes infected in rat skeletal myoblasts L-6 cells after 96 hrs by CPRG/Nonidet reagent based spectrophotometric method; type: functional, organism-based; conditions: Tulahuen C2C4, L6, 96 h
[8] = tested on: Trypanosoma brucei rhodesiense; experiment: Antitrypanosomal activity against Trypanosoma brucei rhodesiense STIB 900 trypomastigotes after 72 hrs by Alamar Blue assay; type: functional, organism-based; conditions: STIB 900, 72 h
Leishmania amazonensis [9] = experiment: Antileishmanial activity against Leishmania amazonensis MHOM/77BR/LTB0016 amastigotes infected in mouse peritoneal macrophages after 48 hrs by Giemsa staining-based assay; type: functional, organism-based; conditions: MHOM/77BR/LTB0016, 48 h
Leishmania braziliensis = experiment: Antileishmanial activity against Leishmania braziliensis H3227 MHOM/BR/94/H-3227 promastigotes after 72 hrs by MTT assay; type: functional, organism-based; conditions: H3227 MHOM/BR/94/H-3227, 72 h
Leishmania amazonensis [10] = experiment: Antileishmanial activity against Leishmania amazonensis MHOM/77BR/LTB0016 promastigotes after 72 hrs by MTT assay; type: functional, organism-based; conditions: MHOM/77BR/LTB0016, 72 h
[11] = target: T1, Dihydroorotate dehydrogenase (fumarate) (Leishmania major); experiment: Binding affinity to Leishmania major DHODH assessed as change in melting temperature at 100 uM by differential scanning fluorimetry-based ThermoFMN assay
[12] = target: T1, Dihydroorotate dehydrogenase (fumarate) (Leishmania major); experiment: Binding affinity to Leishmania major DHODH assessed as change in melting temperature at 500 uM by differential scanning fluorimetry-based ThermoFMN assay
[13] = target: T1, Dihydroorotate dehydrogenase (fumarate) (Leishmania major); experiment: Binding affinity to Leishmania major DHODH assessed as change in melting temperature at 1000 uM by differential scanning fluorimetry-based ThermoFMN assay
[14] = target: T1, Dihydroorotate dehydrogenase (fumarate) (Leishmania major); experiment: Binding affinity to Leishmania major DHODH assessed as change in melting temperature at 100 uM by SYPRO orange dye-based differential scanning fluorimetry
[15] = target: T1, Dihydroorotate dehydrogenase (fumarate) (Leishmania major); experiment: Binding affinity to Leishmania major DHODH assessed as change in melting temperature at 500 uM by SYPRO orange dye-based differential scanning fluorimetry
[16] = target: T1, Dihydroorotate dehydrogenase (fumarate) (Leishmania major); experiment: Binding affinity to Leishmania major DHODH assessed as change in melting temperature at 1000 uM by SYPRO orange dye-based differential scanning fluorimetry
Leishmania amazonensis [17] = experiment: Antileishmanial activity against Leishmania amazonensis promastigotes; type: functional, organism-based

Dihydroorotate dehydrogenase (quinone), mitochondrial (Homo sapiens), sequence (Q02127 whole entry): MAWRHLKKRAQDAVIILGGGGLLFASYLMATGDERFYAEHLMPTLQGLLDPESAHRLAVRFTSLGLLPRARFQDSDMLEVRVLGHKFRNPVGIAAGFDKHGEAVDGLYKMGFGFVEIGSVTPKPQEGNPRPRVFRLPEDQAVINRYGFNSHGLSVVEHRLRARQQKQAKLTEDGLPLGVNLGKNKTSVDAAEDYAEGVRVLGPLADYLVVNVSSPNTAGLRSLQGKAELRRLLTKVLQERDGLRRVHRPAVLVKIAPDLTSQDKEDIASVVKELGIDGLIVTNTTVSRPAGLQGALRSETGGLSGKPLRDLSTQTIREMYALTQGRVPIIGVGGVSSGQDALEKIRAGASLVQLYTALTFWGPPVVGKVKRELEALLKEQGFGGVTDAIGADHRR

SMILES	IC50 [3] [µM]	IC50 (Leishmania donovani) [µM]	IC50 (Trypanosoma cruzi [7]) [µM]	IC50 [8] [µM]	further results
O=c1c(O)c(-c2ccc(O[C@@H]3O[C@H](CO)[C@@H](O)[C@H](O)[C@H]3O)c(O)c2)oc2cc(O)cc(O)c12 [SPIRAEOSIDE]	163	–	–	–	inhibition [1]: 16%; inhibition [2]: 35%
O=C(/C=C/c1ccc(O)c(O)c1)O[C@H]1[C@H](O)C[C@](O)(C(=O)O)C[C@H]1OC(=O)/C=C/c1ccc(O)c(O)c1	73.2	–	–	–	inhibition [1]: 10%; inhibition [2]: 38%; IC50 (Trypanosoma cruzi [4]): 286 µM
C=C1C[C@@]23CC[C@H]4[C@@](C)(CCC[C@@]4(C)C(=O)O)[C@@H]2CC[C@@H]1C3 [KAURENOIC ACID]	31.5	–	–	–	inhibition [1]: 28%; inhibition [2]: 40%; IC50 (Leishmania amazonensis [5]): 93.3 µM; IC50 (Leishmania amazonensis [6]): 11.7 µM
C[C@@H]1O[C@@H](OC[C@H]2O[C@@H](Oc3c(-c4ccc(O)c(O)c4)oc4cc(O)cc(O)c4c3=O)[C@H](O)[C@@H](O)[C@@H]2O)[C@H](O)[C@H](O)[C@H]1O [RUTIN]	1530	49.1	49.1	6.9	IC50 (Leishmania amazonensis [9]): 4.4 µM
COc1ccc(-c2oc3cc(O)c(OC)c(O)c3c(=O)c2OC)cc1 [SANTIN]	262	–	–	–	–
C=C1C(=O)O[C@@H]2/C=C(/C)C(=O)[C@@H]3O[C@H]3[C@](C)(O)C[C@@H](OC(=O)C(C)C)[C@@H]12	103	–	–	–	inhibition [1]: 12%; inhibition [2]: 42%; IC50 (Leishmania braziliensis): 6 µM
C=C(C)C(=O)O[C@@H]1C[C@@](C)(O)[C@@H]2C(=O)C=C(C)[C@@H]2[C@H]2OC(=O)C(=C)[C@@H]21	168	–	–	–	–
COc1cc(/C=C/C(=O)O)ccc1O [FERULATE]	413	155	155	428	IC50 (Leishmania amazonensis [10]): 1.7 µM; IC50 (Leishmania amazonensis [9]): 7.9 µM
C=C1C(=O)O[C@@H]2[C@H]3C(C)=CC(=O)C3=C(C)C[C@@H](OC(=O)[C@]3(C)O[C@@H]3C)[C@@H]12	585	–	–	–	ΔTm [11]: -0.26 °C; ΔTm [12]: -0.64 °C; ΔTm [13]: -0.85 °C; ΔTm [14]: -0.38 °C; ΔTm [15]: -0.75 °C; ΔTm [16]: -1.01 °C
O=C(O)/C=C/c1ccc(O)c(O)c1 [CAFFEIC ACID]	1750	31.1	167	6.11	IC50 (Leishmania amazonensis [10]): 5.2 µM; IC50 (Leishmania amazonensis [9]): 16 µM
O=c1cc(-c2ccc(O)cc2)oc2cc(O[C@@H]3O[C@H](CO)[C@@H](O)[C@H](O)[C@H]3O)cc(O)c12 [APIGETRIN]	105	4.86	69.4	52.5	inhibition [1]: 10%; inhibition [2]: 47%
O=c1c(O)c(-c2ccc(O)cc2)oc2cc(O)cc(O)c12 [KAEMPFEROL]	389	10.1	83.5	32.2	–
O=C(/C=C/c1ccc(O)c(O)c1)O[C@@H]1[C@H](O)C[C@@](O)(C(=O)O)C[C@H]1OC(=O)/C=C/c1ccc(O)c(O)c1	642	–	–	–	–
O=c1c(O)c(-c2ccccc2)oc2cc(O)cc(O)c12 [GALANGIN]	481	5.55	73.3	61.1	–
O=C(O)/C=C/c1ccccc1 [CINNAMIC ACID]	392	37.8	203	223	IC50 (Leishmania amazonensis [17]): 15.5 µM
C=C1C(=O)O[C@@H]2/C=C(/CO)C3=CC(=O)[C@@](C)(C[C@@H](OC(=O)/C(C)=C/C)[C@@H]12)O3 [BUDLEIN A]	263	–	–	–	–
C=C1C(=O)O[C@@H]2C[C@H](C)[C@@]3(O)C[C@H](O)[C@@](C)(C[C@@H](OC(=O)C(C)C)[C@@H]12)O3 [TAGITININ A]	796	–	–	–	ΔTm [11]: -0.26 °C; ΔTm [12]: -0.32 °C; ΔTm [13]: -0.52 °C; ΔTm [14]: -0.07 °C; ΔTm [15]: -0.06 °C; ΔTm [16]: -0.19 °C; IC50 (Leishmania braziliensis): 20.4 µM
C=C1C(=O)O[C@@H]2/C=C(/C)C3=CC(=O)[C@@](C)(C[C@@H](OC(=O)/C(C)=C/C)[C@@H]12)O3 [ATRIPLICIOLIDTIGLATE]	872	–	–	–	ΔTm [11]: -0.35 °C; ΔTm [12]: -0.85 °C; ΔTm [13]: -1.21 °C; ΔTm [14]: -0.47 °C; ΔTm [15]: -2.52 °C; ΔTm [16]: -5.97 °C
COc1ccc(/C=C/C(=O)NC2CCCN2C(=N)N)cc1O (centres undefined)	610	–	–	–	–
